Test results: PMC9571594, “Development of Semisynthetic Apoptosis-Inducing Agents Based on Natural Phenolic Acids Scaffold: Design, Synthesis and In-Vitro Biological Evaluation” (Molecules, 2022)
Where “and” joins values, the source holds several entries; their conditions need not be identical. Identical values can stand only once. Like-named read-outs stand apart in the source and are kept apart here.

Assays:
Assay type in all cases: cell-based
Caspase 3 = test: RT-qPCR gene expression of caspase 3
Protocol: (§1) Gene expression was chosen over Western blotting for more accurate quantification and thus comparison. The gene expression of the p53, caspase 3 and Bax genes was measured.
(§2) The treated cells were harvested and the total RNA was extracted using RNeasy Mini Kit (Qiagen) according to the manufacturer’s instruction. The primers of the required genes (Table 6) were used for SYBR Green qRT-PCR using a one-step RT-PCR kit with SYBR Green (Bio-Rad). qRT-PCR was performed on Rotor Gene Q (Qiagen). […] Rotor-Gene 6000 Series Software was used for data analysis. and their HGNC ID was added (Table 6) […]
(§3) Researcher : DR Moh.Abdelbasir email: m_a_baser@yahoo.com mob.01 […]
(§4) Reader : Rotorgene RT- PCR system
(§5) Kit used : Qiagen RNA extraction/BioRad syber green PCR MMX
(§6) Assay samples :Cell culture Lysate
(§7) Cpd. No. Cpd. No. Cpd. No. Cpd. No.
(§8) Run On Software Version Rotor-Gene 1.7.87
(§9) This report generated by Rotor-Gene 6000 Series Software 1.7 (Build 87) Copyright 2000-2006 Corbett Research, a Division of Corbett Life Science. All rights reserved. […]

Caco-2 cells [1] = test: Cell-cycle analysis by flow cytometry; conditions: for %G0–G1 / %G2/M / %S / %Pre-G1: Caco-2 cells; for %G0–G1 / %G2/M / %S: cell-cycle distribution after treatment; for %Pre-G1: Pre-G1 = apoptotic population; for apoptotic population compared to the parent compound: Caco-2, in words, versus parent 1 or 2
Protocol: The potential candidates with anti-tumor effect on the Caco-2 cell line along with a high SI were chosen for cell-cycle analysis. The cell-cycle distribution and cell death were analyzed using Annexin V-FITC/PI staining and flow cytometry (Table 4, Figure 4).
In order to determine the percentage of viable, apoptotic and necrotic cells after treatment with our compounds, double-staining with fluorescein isothiocyanate (FITC) and PI was performed. Annexin V-FITC Apoptosis Detection Kit (BioVision, CA, USA) was used. Briefly, cultured Caco-2 were treated with the tested compounds or DMSO for 24h. Cells were then collected by centrifugation at 2000 rpm for 5 min, and the pellet was washed with PBS then centrifuged again at 2000 rpm for 5 min then resuspended in 500μL of the kit’s binding buffer before adding the Annexin V-FITC and PI. The cells were then incubated at room temperature in the dark for 5 min. […]
Assay : Cell Cycle Analysis
Kit used : ab139418_Propidium Iodide Flow Cytometry Kit/BD
Assay samples :Cell culture
as §7

Caco-2 cancer cell line = test: MTT cell viability assay, Caco-2; conditions: MTT, 48 h, average of triplicates, semi-synthesized compounds (Table 3), read-out: IC50 (μM) on Caco-2 cancer cell line
Protocol: MCF-7 cells (Human breast adenocarcinoma), HepG2 (human hepatocellular carcinoma), A549 (human lung adenocarcinoma), Caco-2 (colon carcinoma), PANC-1 (human pancreatic cancer), and Vero cells (derived from normal kidney cells) were supplied by (Holding Company for Biological Products and Vaccines VACSERA; Giza, Egypt). The cells were cultured in PRMI 1640 medium (Lonza, Switzerland) supplemented with 10% fetal bovine serum (Gibco), 1% penicillin and 1% streptomycin (Sigma Aldrich, Saint Louis, MO, USA) at 37 °C under an atmosphere of 5% CO2 and 95% air.
The effect of parent compounds and their derivatives were assessed by (3-(4,5-dimethylthiazol-2-yl)-2,5diphenyl-tetrazolium bromide) MTT assay. […] After a merged sheet of cells developed, the growth media was decanted from the 96-well microtiter and refilled with different concentrations of compounds (µg/mL), and the plate was incubated at 37 °C for 48 h to minimize exposure to the dissolving agent (Supporting Information).
MTT solution (BIO BASIC CANADA INC) was prepared [5 mg/mL in phosphate buffered saline (PBS)], added to each well and incubated for 4 h, then after removing the media, 200 μL of DMSO was added to each well to solubilize the formazan crystals and the optical density of the formazan product was measured at 560 nm using microplate reader (mindray, MR-96A). The results were calculated as the mean of the three independent experiments. […]
Determination of sample cytotoxicity on cells (MTT protocol) […]
well) and incubated at 37°C for 24 hours to develop a complete monolayer sheet.
2- Growth medium was decanted from 96 well micro titer plates after confluent sheet of cells were formed, cell monolayer was washed twice with wash media.
3- two-fold dilutions of tested sample was made in RPMI medium with 2% serum […]
4- 0.1 ml of each dilution was tested in different wells leaving 3 wells as control, receiving only maintenance medium.
5- Plate was incubated at 37°C and examined. Cells were checked for any physical signs of toxicity, e.g. partial or complete loss of the monolayer, rounding, shrinkage, […]
6- MTT solution was prepared (5mg/ml in PBS) (BIO BASIC CANADA INC).
8- 20ul MTT solution were added to each well. Place on a shaking table, 150rpm for 5 minutes, to thoroughly mix the MTT into the media.
10) Dump off the media. (dry plate on paper towels to remove residue if necessary. […] 9 ش - ايلعلا هبضهلا - مطقملا / ىسيئرلا لمعملا […]

MMP-2 = test: RT-qPCR gene expression of MMP-2; conditions: for MMP2 Fold Change: Caco2, relative to cont.Caco2 = 1
Protocol: (§10) The treated cells were harvested and the total RNA was extracted using RNeasy Mini Kit (Qiagen) according to the manufacturer’s instruction. The primers of the required genes (Table 6) were used for SYBR Green qRT-PCR using a one-step RT-PCR kit with SYBR Green (Bio-Rad). qRT-PCR was performed on Rotor Gene Q (Qiagen). […] Rotor-Gene 6000 Series Software was used for data analysis. and their HGNC ID was added (Table 6)
(§11) Researcher : Dr/Noura email: mob.
as §4, §5, §6, §7

p53 = test: RT-qPCR gene expression of p53
Protocol: as §1, §2, §3, §4, §5, §6, §7, §8, §9

MMP-9 = test: RT-qPCR gene expression of MMP-9; conditions: for MMP9 Fold Change: Caco2, relative to cont.Caco2 = 1
Protocol: as §10, §11, §4, §5, §6, §7

Bax = test: RT-qPCR gene expression of Bax
Protocol: as §1, §2, §3, §4, §5, §6, §7, §8, §9

Caco-2 cells [2] = test: Annexin V-FITC/PI apoptosis assay by flow cytometry; parameters: key: % of cells; conditions: annexin-V FITC/PI staining, 24h
Protocol: In order to determine the percentage of viable, apoptotic and necrotic cells after treatment with our compounds, double-staining with fluorescein isothiocyanate (FITC) and PI was performed. Annexin V-FITC Apoptosis Detection Kit (BioVision, CA, USA) was used. Briefly, cultured Caco-2 were treated with the tested compounds or DMSO for 24h. Cells were then collected by centrifugation at 2000 rpm for 5 min, and the pellet was washed with PBS then centrifuged again at 2000 rpm for 5 min then resuspended in 500μL of the kit’s binding buffer before adding the Annexin V-FITC and PI. The cells were then incubated at room temperature in the dark for 5 min. Annexin V-FITC binding was measured using FACS Calibur flow cytometer (BD biosciences, USA) (Ex = 488 nm, Em = 533 nm, FL1 filter for annexin and FL2 filter for PI).

Bcl-2 = test: RT-qPCR gene expression of Bcl-2; conditions: Caco2, β-actin as control gene, relative to cont.Caco2 = 1; listed as FA9
Protocol: as §2, §3, §4, §5, §6, §7, §8, §9

[3] = Caco2, β-actin as control gene, relative to cont.Caco2 = 1, listed as FA9

| Compound | %G0–G1 (Caco-2 cells [1]) [%] | %G2/M (Caco-2 cells [1]) [%] | %S (Caco-2 cells [1]) [%] | %Pre-G1 (Caco-2 cells [1]) | MMP2 Fold Change (MMP-2) [Fold Change] | MMP9 Fold Change (MMP-9) [Fold Change] | Apoptosis Total (Caco-2 cells [2]) | Early Apoptosis (Caco-2 cells [2]) | Necrosis (Caco-2 cells [2]) | apoptotic population compared to the parent compound (Caco-2 cells [1]) | IC50 (Caco-2 cancer cell line) [µM] | Late Apoptosis (Caco-2 cells [2]) | other results |
| --- | --- | --- | --- | --- | --- | --- | --- | --- | --- | --- | --- | --- | --- |
| COc1cc(/C=C/C(=O)NC2CCCCC2)ccc1O [Compound 15, (E)-N-Cyclohexyl-3-(4-hydroxy-3-methoxyphenyl)acrylamide] | 26.59 ± 2.67 | 50.83 ± 3.49 | 22.58 ± 2.91 | 25.17% and 25.17 ± 3.29% | 0.59±0.016 | 0.37±0.007 | 25.17 | 5.79 | 2.81 | – | – | – | overexpression of caspase 3 gene (Caspase 3; Figures 6 and 7): 15 fold; %G0–G1 (Caco-2 cells [1]; listed as FA5): 26.59%; %G2/M (Caco-2 cells [1]; listed as FA5): 50.83%; %S (Caco-2 cells [1]; listed as FA5): 22.58%; IC50 (Caco-2 cancer cell line; Homo sapiens, Caco-2): 20 µM; overexpression of p53 gene (p53; Figures 6 and 7): 10 fold; overexpression of Bax gene (Bax; Figures 6 and 7): 15 fold |
| COc1ccc(/C=C/C(=O)NCc2ccccc2)cc1O [Compound 18, (E)-N-Benzyl-3-(3-hydroxy-4-methoxyphenyl) acrylamide] | 33.26 ± 4.29 | 37.62 ± 2.47 | 29.12 ± 4.05 | 12.92 ± 2.16% | 0.42±0.011 | 0.52±0.010 | 12.92 | 3.88 | 1.73 | non-significant decrease | 50 | 7.31 | Bcl2 gene expression Fold Change (Bcl-2): 0.58±0.03 Fold Change and 0.5856 Fold Change; Casp3 gene expression Fold Change (Caspase 3; [3]): 6.02±0.33 Fold Change and 6.029 Fold Change; %G0–G1 (Caco-2 cells [1]; listed as FA9): 33.26%; %G2/M (Caco-2 cells [1]; listed as FA9): 37.62%; %S (Caco-2 cells [1]; listed as FA9): 29.12%; %Pre-G1 (Caco-2 cells [1]; listed as FA9): 12.92%; P53 gene expression Fold Change (p53; [3]): 5.87±0.27 Fold Change and 5.878 Fold Change; Bax gene expression Fold Change (Bax; [3]): 6.06±0.41 Fold Change and 6.068 Fold Change |
| (E)-3-(3-Hydroxy-4-methoxyphenyl)-N-(m-tolyl)acrylamide [Compound 17] | – | – | – | 12.11 ± 0.97% | – | – | 12.11 | 4.25 | 1.61 | non-significant decrease | 20 | 6.25 | %Pre-G1 (Caco-2 cells [1]; listed as FA8): 12.11%; expression of MMP2 (in words) (MMP-2; Figures 8 and 9): greatest inhibition; expression of MMP9 (in words) (MMP-9; Figures 8 and 9): greatest inhibition |
